Data: patent publication US8691816B2, “Pyrrole inhibitors of S-nitrosoglutathione reductase as therapeutic agents” (N30 Pharmaceuticals, Inc., priority 2008, dated 2014)

Biological target: T1, GSNOR (GSNO Reductase) (Homo sapiens, UniProt P11766)
T1 construct: made in house; host or cells: E. coli (arabinose induction)
Experiment: GSNOR assay (in vitro inhibition of GSNOR activity, NADH absorbance at 340 nm)
Type: biochemical
Settings: 0.240 mM GSNO, 0.300 mM NADH, 0.5 μg/mL GSNO Reductase, pH 7.4, 25° C.
Method: Various compounds were tested in vitro for their ability to inhibit GSNOR activity. Representative compounds and their corresponding GSNOR activity are described in a paragraph before Table 1 above. GSNOR expression and purification is described in Biochemistry 2000, 39, 10720-10729.
GSNOR fermentation: Pre-cultures were grown from stabs of a GSNOR glycerol stock in 2XYT media containing 100 ug/ml ampicillin after an overnight incubation at 37° C. Cells were then added to fresh 2XYT (4 L) containing ampicillin and grown to an OD (A600) of 0.6-0.9 at 37° C. before induction. GSNOR expression was induced with 0.1% arabinose in an overnight incubation at 20° C.
GSNOR Purification: E. coli cell paste was lysed by nitrogen cavitation and the clarified lysate purified by Ni affinity chromatography on an AKTA FPLC (Amersham Pharmacia). The column was eluted in 20 mM Tris pH 8.0/250 mM NaCl with a 0-500 mM imidazole gradient. […] GSNOR was recovered in the flowthrough fraction and for crystallography is further purified by Q-Sepharose and Heparin flowthrough chromatography in 20 mM Tris pH 8.0, 1 mM DTT, 10 uM ZnSO4.
GSNOR assay: GSNO and Enzyme/NADH Solutions are made up fresh each day. The Solutions are filtered and allowed to warm to room temperature. GSNO Solution: 100 mM NaPO4 (pH 7.4), 0.480 mM GSNO. 396 μL of GSNO Solution is added to a cuvette followed by 8 μL of test compound in DMSO (or DMSO only for full reaction control) and mixed with the pipette tip. Compounds to be tested are made up at a stock concentration of 10 mM in 100% DMSO. 2 fold serial dilutions are done in 100% DMSO. 8 μL of each dilution are added to an assay so that the final concentration of DMSO in the assay is 1%. The concentrations of compounds tested range from 100 to 0.003 μM. Enzyme/NADH Solution: 100 mM NaPO4 (pH 7.4), 0.600 mM NADH, 1.0 μg/mL GSNO Reductase. 396 μL of the Enzyme/NADH Solution is added to the cuvette to start the reaction. The cuvette is placed in the Cary 3E UV/Visible Spectrophotometer and the change in 340 nm absorbance/min at 25° C. is recorded for 3 minutes. The assays are done in triplicate for each compound concentration. IC50's for each compound are calculated using the standard curve analysis in the Enzyme Kinetics Module of SigmaPlot.
Final assay conditions: 100 mM NaPO4, pH 7.4, 0.240 mM GSNO, 0.300 mM NADH, 0.5 μg/mL GSNO Reductase and 1% DMSO. Final volume: 800 μL/cuvette.

T1 sequence (P11766 whole entry): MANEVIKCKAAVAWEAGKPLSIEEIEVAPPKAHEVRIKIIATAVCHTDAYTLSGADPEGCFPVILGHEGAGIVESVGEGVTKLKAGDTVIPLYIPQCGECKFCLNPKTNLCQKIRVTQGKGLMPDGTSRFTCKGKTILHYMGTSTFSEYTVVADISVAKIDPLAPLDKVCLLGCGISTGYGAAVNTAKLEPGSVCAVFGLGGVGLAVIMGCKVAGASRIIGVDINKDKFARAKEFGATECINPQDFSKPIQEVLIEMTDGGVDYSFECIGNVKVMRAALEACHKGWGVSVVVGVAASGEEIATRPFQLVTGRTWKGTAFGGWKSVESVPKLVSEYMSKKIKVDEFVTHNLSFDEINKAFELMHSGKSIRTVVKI

Compound | IC50
Cc1nccn1-c1ccc(-c2ccc(CCC(=O)O)n2-c2ccc3[nH]c(=O)oc3c2)cc1 [Compound 236, 3-(5-(4-(2-methyl-1H-imidazol-1-yl)phenyl)-1-(2-oxo-2,3-dihydrobenzo[d]oxazol-6-yl)-1H-pyrrol-2-yl)propanoic acid] | < 5000 nM
COc1ccc(-c2ccc(CCC(=O)O)n2-c2ccc(O)c(F)c2)cc1 [Compound 229, 3-(1-(3-fluoro-4-hydroxyphenyl)-5-(4-methoxyphenyl)-1H-pyrrol-2-yl)propanoic acid] | < 5000 nM
Cc1nccn1-c1ccc(-c2ccc(CCC(=O)O)n2-c2ccc3oc(=O)[nH]c3c2)cc1 [Compound 235, 3-(5-(4-(2-methyl-1H-imidazol-1-yl)phenyl)-1-(2-oxo-2,3-dihydrobenzo[d]oxazol-5-yl)-1H-pyrrol-2-yl)propanoic acid] | < 1000 nM
COc1cc(Cl)ccc1-c1ccc(CCC(=O)O)n1-c1ccc(O)cc1 [Compound 262, 3-(5-(4-chloro-2-methoxyphenyl)-1-(4-hydroxyphenyl)-1H-pyrrol-2-yl)propanoic acid] | < 1000 nM
COc1ccc(-c2ccc(CCC(=O)O)n2-c2ncc(C(N)=O)s2)cc1 [Compound 238, 3-(1-(5-carbamoylthiazol-2-yl)-5-(4-methoxyphenyl)-1H-pyrrol-2-yl)propanoic acid] | < 5000 nM
COc1ccc(-c2ccc(CCC(=O)O)n2-c2ccc(F)c(C#N)c2)cc1 [Compound 226, 3-(1-(3-cyano-4-fluorophenyl)-5-(4-methoxyphenyl)-1H-pyrrol-2-yl)propanoic acid] | < 5000 nM
Cc1cc(S(N)(=O)=O)ccc1-n1c(CCC(=O)O)ccc1-c1ccc(-n2ccnc2C)s1 [Compound 194] | < 1000 nM
Cc1nccn1-c1csc(-c2ccc(CCC(=O)O)n2-c2ccc(NS(C)(=O)=O)cc2)c1 [Compound 267, 3-(5-(4-(2-methyl-1H-imidazol-1-yl)thiophen-2-yl)-1-(4-(methylsulfonamido)-phenyl)-1H-pyrrol-2-yl)propanoic acid] | < 1000 nM
COc1ccc(-c2ccc(CCC(=O)O)n2-c2ccc(C(N)=O)s2)cc1 [Compound 237, 3-(1-(5-carbamoylthiophen-2-yl)-5-(4-methoxyphenyl)-1H-pyrrol-2-yl)propanoic acid] | < 5000 nM
COc1ccc(-c2ccc(CCC(=O)O)n2-c2ccc3c(N)noc3c2)cc1 [Compound 231, 3-(1-(3-aminobenzo[d]isoxazol-6-yl)-5-(4-methoxyphenyl)-1H-pyrrol-2-yl)propanoic acid] | < 1000 nM
COc1ccc(-c2ccc(CCC(=O)O)n2-c2ccc3ccncc3c2)cc1 [Compound 223, 3-(1-(isoquinolin-7-yl)-5-(4-methoxyphenyl)-1H-pyrrol-2-yl)propanoic acid] | < 5000 nM
O=C(O)CCc1ccc(-c2ccccc2)n1-c1ccc(O)c(C(=O)O)c1 [Compound 232, 5-(2-(2-carboxyethyl)-5-phenyl-1H-pyrrol-1-yl)-2-hydroxybenzoic acid] | < 5000 nM
Cc1nccn1-c1csc(-c2ccc(CCC(=O)O)n2-c2ccc(O)cc2)c1 [Compound 255, 3-(1-(4-hydroxyphenyl)-5-(4-(2-methyl-1H-imidazol-1-yl)thiophen-2-yl)-1H-pyrrol-2-yl)propanoic acid] | < 1000 nM
Cc1cc(NS(C)(=O)=O)ccc1-n1c(CCC(=O)O)ccc1-c1cc(Br)cs1 [Compound 183, 3-(5-(4-bromothiophen-2-yl)-1-(2-methyl-4-(methyl-sulfonamido)-phenyl)-1H-pyrrol-2-yl)propanoic acid] | < 5000 nM
Cc1cc(C(N)=O)ccc1-n1c(CCC(=O)O)ccc1-c1ccc(Cl)cc1C(N)=O [Compound 152, 3-(1-(4-carbamoyl-2-methylphenyl)-5-(2-carbamoyl-4-chloro-phenyl)-1H-pyrrol-2-yl)propanoic acid] | < 1000 nM
COc1cc(Cl)ccc1-c1ccc(CCC(=O)O)n1-c1ccc(C(N)=O)cc1 [Compound 264, 3-(1-(4-carbamoylphenyl)-5-(4-chloro-2-methoxyphenyl)-1H-pyrrol-2-yl)propanoic acid] | < 1000 nM
COc1ccc(-c2ccc(CCC(=O)O)n2-c2ccc(O)cc2Cl)cc1 [Compound 80, 3-(1-(2-chloro-4-hydroxyphenyl)-5-(4-methoxy-phenyl)-1H-pyrrol-2-yl)propanoic acid] | < 1000 nM

Second part, the molecule after the results:

IC50 | Compound
< 1000 nM | COc1ccc(-c2ccc(CCC(=O)O)n2-c2ccc(C(N)=O)cc2C)c(Cl)c1 [Compound 118, 3-(1-(4-carbamoyl-2-methylphenyl)-5-(2-chloro-4-methoxy-phenyl)-1H-pyrrol-2-yl)propanoic acid]
< 1000 nM | Cc1cc(C(N)=O)ccc1-n1c(CCC(=O)O)ccc1-c1cc(-n2ccnc2)cs1 [Compound 120, 3-(5-(4-(1H-imidazol-1-yl)thiophen-2-yl)-1-(4-carbamoyl-2-methylphenyl)-1H-pyrrol-2-yl)propanoic acid]
< 1000 nM | COc1cc(-n2ccnc2C)ccc1-c1ccc(CCC(=O)O)n1-c1ccc(C(N)=O)cc1C [Compound 146, 3-(1-(4-carbamoyl-2-methylphenyl)-5-(2-methoxy-4-(2-methyl-1H-imidazol-1-yl)phenyl)-1H-pyrrol-2-yl)propanoic acid]
< 1000 nM | Cc1cc2nc[nH]c2cc1-n1c(CCC(=O)O)ccc1-c1ccc(-n2ccnc2)cc1 [Compound 219, 3-(5-(4-(1H-imidazol-1-yl)phenyl)-1-(5-methyl-1H-benzo[d]imidazol-6-yl)-1H-pyrrol-2-yl)propanoic acid]
< 1000 nM | Cc1nccn1-c1ccc(-c2ccc(CCC(=O)O)n2-c2ccc(O)cc2)s1 [Compound 273, 3-(1-(4-hydroxyphenyl)-5-(5-(2-methyl-1H-imidazol-1-yl)thiophen-2-yl)-1H-pyrrol-2-yl)propanoic acid]
< 1000 nM | COc1ccc(-c2ccc(CCC(=O)O)n2-c2ccc(C(N)=O)c(Cl)c2)cc1 [Compound 221, 3-(1-(4-carbamoyl-3-chlorophenyl)-5-(4-methoxyphenyl)-1H-pyrrol-2-yl)propanoic acid]
< 1000 nM | Cc1nccn1-c1ccc(-c2ccc(CCC(=O)O)n2-c2ccc(O)cc2)cc1 [Compound 249, 3-(1-(4-hydroxyphenyl)-5-(4-(2-methyl-1H-imidazol-1-yl)phenyl)-1H-pyrrol-2-yl)propanoic acid]
< 1000 nM | COc1ccc(-c2ccc(CCC(=O)O)n2-c2ccc(C(N)=O)cc2C)c(C)c1 [Compound 110, 3-(1-(4-carbamoyl-2-methylphenyl)-5-(4-methoxy-2-methylphenyl)-1H-pyrrol-2-yl)propanoic acid]
< 1000 nM | COc1ccc(-c2ccc(CCC(=O)O)n2-c2ccc3ncccc3c2)cc1 [Compound 216, 3-(5-(4-methoxyphenyl)-1-(quinolin-6-yl)-1H-pyrrol-2-yl)propanoic acid]
< 1000 nM | CCc1nccn1-c1ccc(-c2ccc(CCC(=O)O)n2-c2ccc(C(N)=O)cc2C)cc1 [Compound 69, 3-(1-(4-carbamoyl-2-methylphenyl)-5-(4-(2-ethyl-1H-imidazol-1-yl)phenyl)-1H-pyrrol-2-yl)propanoic acid]
< 1000 nM | Cc1cc(C(N)=O)ccc1-n1c(CCC(=O)O)ccc1-c1cc(-n2ccnc2C)cs1 [Compound 144, 3-(1-(4-carbamoyl-2-methylphenyl)-5-(4-(2-methyl-1H-imidazol-1-yl)thiophen-2-yl)-1H-pyrrol-2-yl)propanoic acid]
